Experiment [1] deals with NF-κB driven transcription (pNF-κB-luc reporter, 293 cells). In words: 293/NF-kB-luc reporter cell assay. The settings on record: Homo sapiens; compound 2 hours, then 20 ng/ml TNF-α for 18 hours; luminescence. The experiment is classed as cell-based. The procedure:
(§1) Two reporter cell assays were used to determine the ability of the compounds of Examples 1-12 to inhibit NF-κB driven transcription. The first assay was a 293-cell based assay with a stably integrated pNF-κB-luc reporter plasmid containing 3 NF-κB promoter elements. The second assay was a 293-cell based assay with a stably integrated pTRH1-NF-κB-dscGFP reporter containing 4 NF-κB promoter elements. Cells were treated with 0, 0.2, 1, 10, 20 and 40 μM of the compounds of Example 1-12 for 2 hours then were induced with 20 ng/ml TNF-α for 18 hours. Following the induction, luminescence or fluorescence was quantified using a Beckman-Coulter 2300 plate reader. […] As a control, 0.5% DMSO treated and untreated cells were compared to verify that the compounds of Examples 1-12 had no effect on the expression of luciferase or in the readout of the assay. There was a slight decrease in the output from the assay in the DMSO treated population although it was not statistically significant. As a result of the controls, the decrease in activity in the drug treated samples was compared to the DMSO control sample.

For experiment [2], the system named is NF-κB driven transcription (pTRH1-NF-κB-dscGFP reporter, 293 cells). Kind of experiment: NF-kB/293/GFP reporter cell assay. The class given is cell-based. Particulars: Homo sapiens, HEK293; compound 2 hours, then 20 ng/ml TNF-α for 18 hours; fluorescence. The procedure:
as §1

Experiment [3] concerns the target T1, RelB (Homo sapiens, UniProt Q01201).
T1 sequence (Q01201 1-579): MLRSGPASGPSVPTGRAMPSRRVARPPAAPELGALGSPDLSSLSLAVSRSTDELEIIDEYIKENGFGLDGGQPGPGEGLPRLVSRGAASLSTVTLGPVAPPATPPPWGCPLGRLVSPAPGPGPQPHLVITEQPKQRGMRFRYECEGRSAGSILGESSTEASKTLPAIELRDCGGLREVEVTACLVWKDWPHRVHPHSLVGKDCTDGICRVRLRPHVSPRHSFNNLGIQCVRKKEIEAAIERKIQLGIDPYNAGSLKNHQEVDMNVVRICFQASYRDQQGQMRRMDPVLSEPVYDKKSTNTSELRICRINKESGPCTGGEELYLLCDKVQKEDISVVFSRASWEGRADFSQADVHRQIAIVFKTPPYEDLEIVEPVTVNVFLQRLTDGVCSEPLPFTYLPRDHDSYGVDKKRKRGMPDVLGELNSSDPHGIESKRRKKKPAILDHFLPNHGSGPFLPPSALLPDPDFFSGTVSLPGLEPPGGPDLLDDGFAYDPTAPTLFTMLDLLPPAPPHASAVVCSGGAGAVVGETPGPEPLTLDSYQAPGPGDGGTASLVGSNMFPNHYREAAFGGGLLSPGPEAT
Kind of experiment: TransAM NF-κB Family DNA Binding ELISA, RelB. How it is done: The binding activity of NF-κB heterodimer or homodimer subunits from activated nuclear extracts or purified recombinant NF-κB proteins exposed to the drug compounds was evaluated using the TransAM NF-κB Family binding ELISA (Active Motif). Approximately 3-5 μg of nuclear extracts from TNFα activated Hela or Raji cells (Active Motif) or 20 ng of purified recombinant proteins (p65 and p50 from Active Motif, p52 from Santa Cruz) were incubated for 1 hour at room temperature with 20 μL drug compounds diluted in Complete Lysis buffer without DTT. Treated samples were then transferred to 30 μL Complete Binding Buffer (with DTT) in microplate wells pre-coated with the NF-κB consensus oligonucleotide. […] The plate was incubated for 1 hour at room temperature with gentle shaking and then washed 3 times with 200 μL 1× Wash Buffer. NF-κB p65, p50, p52, RelB, or c-Rel subunits bound to the plate were detected with 100 μL of the primary antibody (diluted 1:1000 in 1× Antibody Buffer) specific for that subunit. The plate was incubated for 1 hour at room temperature and then washed 3 times with 200 μL 1× Wash Buffer. Next, 100 μL of a HRP conjugated goat anti-rabbit antibody (diluted 1:1,000 in 1× Antibody Buffer) was added to each well. The plate was incubated for 1 hour at room temperature and then washed 4 times with 200 μL 1× Wash Buffer. 100 μL of room temperature Developing Solution was added to each well. The reaction was allowed to develop for 2-10 minutes until a medium dark blue color developed (depending on the subunit activity in the lot of extract or lot of recombinant protein used) and then the reaction was stopped with 100 μL Stop Solution yielding a yellow color. Absorbance was recorded using a Becton-Dickinson DTX 880 Multimode Detector at 450 nm with a reference wavelength subtracted at 620 nm.
In general terms: In an ELISA, binding on a coated surface is turned into a signal by an enzyme label.

Molecules are shown by their SMILES.

Regarding `CC(C)CC(=O)Oc1ccccc1C(=O)NC1=CC(=O)C2OC2C1O` (racemic) [Example 1, (±)-2-(2-hydroxy-5-oxo-7-oxabicyclo[4.1.0]hept-3-en-3-ylcarbamoyl)phenyl 3-methylbutanoate], the results for the concentration giving a half-maximal response (EC50) in experiment [1] and in experiment [2] were 18 µM and 11 µM, respectively. In experiment [3], the inhibition (as a rule, the relative decrease from the control value, in per cent) at 5 µM was 0%.

On to `CC(C)OC(=O)Oc1ccccc1C(=O)NC1=CC(=O)C2OC2C1OC(=O)OC(C)C` (racemic) [Example 2, (±)-3-(2-isopropoxycarbonyloxy-benzoylamino)-5-oxo-7-oxa-bicyclo[4.1.0]hept-3-en-2-yl ester isopropyl ester], for which, in experiment [1], a half-maximal effect (EC50) was put at 11 µM. In experiment [3], this molecule registered an inhibition at 5 µM of 2%.

For the molecule `O=C(CC1CCCCC1)Oc1ccccc1C(=O)NC1=CC(=O)C2OC2C1O` (racemic) [Example 3, (±)-2-(2-hydroxy-5-oxo-7-oxabicyclo[4.1.0]hept-3-en-3-ylcarbamoyl)phenyl 2-cyclohexylacetate], the values for the EC50 in experiment [1] and in experiment [2] were 14 µM and 10 µM, respectively. Besides, in experiment [3], the inhibition at 5 µM is 3%.

As to `CCCC(C)C(=O)Oc1ccccc1C(=O)NC1=CC(=O)C2OC2C1O` (racemic) [Example 4, (±)-2-(2-hydroxy-5-oxo-7-oxabicyclo[4.1.0]hept-3-en-3-ylcarbamoyl)phenyl 2-methylpentanoate], the figures for the EC50 in experiment [1] and in experiment [2] were 10 µM and 17 µM, respectively. For the same molecule, testing at 5 µM in experiment [3] gave an inhibition of 5%.

Regarding `CCCCC(CC)C(=O)Oc1ccccc1C(=O)NC1=CC(=O)C2OC2C1O` (racemic) [Example 5, (±)-2-(2-hydroxy-5-oxo-7-oxabicyclo[4.1.0]hept-3-en-3-ylcarbamoyl)phenyl 2-ethylhexanoate], the EC50 (in general, the concentration giving half of the maximal effect) came to 15 µM in experiment [1] and 6.7 µM in experiment [2]. Besides, the inhibition at 5 µM in experiment [3] came to 5%.

Regarding `CC(C)(C)CC(=O)Oc1ccccc1C(=O)NC1=CC(=O)C2OC2C1O` (racemic) [Example 6, (±)-2-(2-hydroxy-5-oxo-7-oxabicyclo[4.1.0]hept-3-en-3-ylcarbamoyl)phenyl 3,3-dimethylbutanoate], the half-maximal effective concentration (EC50) in experiment [1] was determined as 8 µM; in experiment [2], 10 µM. The molecule also yielded an inhibition at 5 µM in experiment [3] of 3%.

Turning to `CC(C)OC(=O)Oc1ccccc1C(=O)NC1=CC(=O)C2OC2C1O` (racemic) [Example 7, (±)-2-(2-hydroxy-5-oxo-7-oxabicyclo[4.1.0]hept-3-en-3-ylcarbamoyl)phenyl isopropyl carbonate], the EC50 in experiment [1] came to 17 µM; in experiment [2] it was 8.4 µM. The molecule also showed an inhibition at 5 µM in experiment [3] of 0%.

Take `CC(C)OC(=O)OC1C(NC(=O)c2ccccc2O)=CC(=O)C2OC21` (racemic) [Example 8]: the EC50 was 10 µM in experiment [1] and 14 µM in experiment [2]. For the same molecule, the inhibition at 5 µM in experiment [3] worked out at 2%.

These data come from patent US20120088827A1 (Profectus Biosciences, Inc., priority 2009, published 2012).
